Each structure is given as a SMILES string. A value given as a limit tells only on which side of the number the result lay.

`CC12CCC(C1)C1(C)Oc3ccc(C(=O)c4ccc(C=CC(=O)O)cc4)cc3C21C` (stereo unspecified) yielded a melting point of 242 to 243 °C.

Compound `CCOC(=O)C1=NN(c2cccc(Cl)c2)C(c2ccccc2)CC1` (stereo unspecified) had a melting point of 125 to 126 °C.

In turn, `CC(C)n1cncc1CO` returned a melting point of 83 to 84 °C.

In turn, `CN1CC(CN2CC(=O)NC2=O)C=C2c3cccc4[nH]cc(c34)CC21` (stereo unspecified) gave a melting point of 282 to 284 °C.

The compound `O=[N+]([O-])c1cccc2[nH]c3c(c12)CCCCCC3` yielded a melting point of 189 to 191 °C.

For `O=S(=O)(Nc1ccc(Cl)cc1Oc1ccc(Cl)cc1Cl)C(F)(F)F`, the melting point is 97 to 98 °C.

`COc1ccc(OC)c(CC(=O)c2c(O)c3cccnc3n(-c3ccccc3)c2=O)c1` returned a melting point of 159 to 161 °C.

Regarding `O=C(O)c1cn(-c2ccc(F)cc2)c2c(F)c(N3Cc4ccc(F)cc4C3)c(F)cc2c1=O`, the melting point is above 300 °C.

Compound `CCOC(=NC(=O)c1ccc(C(F)(F)F)cc1)N1Cc2ccccc2-c2ccccc2C1` came in with a melting point of 112 to 113 °C.

As to `O=C(O)c1ccc2cc(-c3cc4c(c(C56CC7CC(CC(C7)C5)C6)c3)OCO4)ccc2c1`, the melting point is 300 to 305 °C.

On to `Cc1ccccc1C(=O)Nc1ccc(C(=O)N2CCCC(NC=O)c3ccccc32)cc1` (stereo unspecified), for which the melting point lay in the range of 211 to 213 °C.

Compound `CC#CCOc1ccc(S(=O)(=O)NC2(C(=O)O)CCCC2)cc1` displayed a melting point of 108 to 110 °C.

`Cc1cccc(C)c1C(=O)Nc1cccc2c1CCN(C)C2` displayed a melting point of 200 to 201 °C.

Compound `CCOC(=O)c1cnc(N2CCN(Cc3ccccc3)CC2)nc1C(=O)OCC` displayed a melting point of 66 °C.

As for `CC1CCCCN1c1nc(-c2ccc(Cl)cc2)c(CCC(=O)O)o1` (stereo unspecified), the melting point is 126 to 128 °C.

Take `CCC(C)NC(=O)Nc1cc(-c2c(-c3ccc(F)c(C)c3)nc3cccnn23)ccn1` (stereo unspecified): the melting point lay in the range of 196 to 197 °C.

With `CC(=O)N1CCN(c2cc3c(c(NCc4ccccc4)c2F)c(=O)c(C(=O)O)cn3C2CC2)CC1C` (stereo unspecified), the melting point was in the range of 235 to 236 °C.

Regarding `Cn1c(CC#N)ccc1C(=O)c1ccc(Br)cc1`, the melting point fell in the range of 139 to 141 °C.

`CC(C)(C)N1C[C@H](O)C[C@H]1C(=O)NC(=O)OCc1ccccc1` registered a melting point of 128 to 130 °C.

Take `CCC1=C(c2cccc(C(F)(F)F)c2)n2ncc(C#N)c2N(C(=O)CN2CCN(Cc3ccccc3)CC2)C1`: the melting point is 97 to 99 °C.

Consider `CCCCCCCCCCCCCCC(=O)CC(=O)OC`, for which the melting point was 51 to 53 °C.

On to `CC(C)(C)c1nn(-c2c(Cl)cc(C(F)(F)F)cc2Cl)c(Cl)c1-c1nc(C#N)c(C#N)[nH]1`, for which the melting point fell in the range of 118 to 120 °C.

On to `COC(=O)C(C)(C)OCc1cc2cc(Cl)ccc2n1S(=O)(=O)c1ccc2sc(C)nc2c1`, for which the melting point lay within 132 to 134 °C.

`COc1ccc(-c2ccc(C(=O)O)cn2)cc1` gave a melting point of 252 to 253 °C.

`OCCc1cc(C(O)CNCCCCCOCCCCc2ccccc2)ccc1O` (stereo unspecified) yielded a melting point of 65 to 67 °C.

Compound `CCCCOC(=O)c1ccc(N2CCN(S(C)(=O)=O)CC2)cc1` displayed a melting point of 145 to 150 °C.

`Cc1nn(C)c(S(N)(=O)=O)c1[N+](=O)[O-]` had a melting point of 138 to 140 °C.

In turn, `Cc1c(-c2ccccc2)nn(C(C)(C)C(=O)N(C)C)c1C` showed a melting point of 115 to 117 °C.

In the case of `CCOC(=O)c1cn(Cc2ccccc2)nc1OCc1ccc(OCc2nc(-c3ccco3)oc2C)c(OC)c1`, the melting point lay within 117 to 118 °C.

The compound `COc1ccc(CS(=O)c2cc(OC)c(OC)c(OC)c2)cc1` (stereo unspecified) yielded a melting point of 103 to 105 °C.

Regarding `COC(=O)c1cc(-c2ccc(=O)n(C(C)C)n2)c(-c2ccccc2)nc1OCC(N)=O`, the melting point was in the range of 183 to 184 °C.

With `CCc1ccc(C#Cc2ccc(C=O)cc2)cc1`, the melting point worked out at 117 °C.

Consider `Cc1nc2c(N)nc3ccc(OCc4ccccc4)cc3c2n1CCCCNC(=O)N1CCOCC1`, for which the melting point lay in the range of 178 to 180 °C.

In turn, `CCc1nn(Cc2ccccn2)c2c(=O)[nH]c(-c3cc(S(C)(=O)=O)ccc3OCC(C)C)nc12` returned a melting point of 223 to 225 °C.

`CCC12OC1C(=O)C(Nc1ncnc3cc(OC)c(OC)cc13)=CC2=O` (stereo unspecified) displayed a melting point of 202 to 204 °C.

Consider `O=C1OC(=O)c2ccc3c4cccc5cccc(c6ccc1c2c63)c54`, for which the melting point is above 260 °C.

`Cc1cc(NC(=O)NC(=O)c2c(Cl)cccc2Cl)ncc1-c1ccccc1`: the melting point is 210 to 214 °C.

On to `COC(=O)CC(Oc1c(Br)cc(-c2c3ccccc3c(Br)c3sc4ccccc4c23)cc1Br)C(=O)OC` (stereo unspecified), for which the melting point was 118 to 121 °C.

Turning to `CCOc1nc2ccccc2n(-c2ccc(Cl)cc2)c1=O`, the melting point lay in the range of 244 to 246 °C.

As for `COc1ccc(OCC(O)CCCl)cc1` (stereo unspecified), the melting point was 65 to 68 °C.

On to `Cc1cn(-c2cccc(C(F)(F)F)c2)nc(-c2ccnn2-c2ccccc2)c1=O`, for which the melting point lay within 147 to 150 °C.

Consider `CCC1(O)CCC2(C)C(CCC3C4CCC(C(C)=O)C4(C)CC(=O)C32)C1` (stereo unspecified), for which the melting point came to 129 °C.

`COc1cc(C)cc2c(=O)oc3c(c12)C(=O)c1cccc(O)c1C3=O` yielded a melting point of 282 to 292 °C.

On to `CC(C)(C)[Si](C)(C)Oc1ccc2c(c1)Oc1ccccc1C2=C1C2CC3CC(C2)CC1C3`, for which the melting point is 137 °C.

Consider `O=C1CC2CCSc3sccc3C2=NN1` (stereo unspecified), for which the melting point lay within 215 to 217 °C.

In the case of `CC(=O)OCc1ccc2oc(=O)c(C(=O)Oc3cc([N+](=O)[O-])ccc3[N+](=O)[O-])cc2c1`, the melting point fell in the range of 162 to 164 °C.

Regarding `Nc1nc2ccccc2c2c1ncn2CCOCCCc1cncnc1`, the melting point lay within 159 to 161 °C.

In turn, `COc1cccc(Cc2cc3ccc4ccccc4n3n2)c1` had a melting point of 82 to 84 °C.

As to `Cc1cccc(NC(=O)NCC(=O)N(CC(=O)N2CCC3(CCCC3)CC2)c2ccccc2)c1`, the melting point was determined as 183 °C.

For the compound `N[C@H]1CCN(c2ccc3c(NC(=O)CCc4ccccc4Cl)c(Cl)ccc3n2)C1`, the melting point lay within 200 to 212 °C.

Compound `O=C1CC(c2ccccc2)c2cc(Br)ccc2O1` (stereo unspecified) gave a melting point of 117 °C.

Turning to `OCC(CCc1ccc(Cl)cc1)Cn1cncn1` (stereo unspecified), the melting point lay in the range of 40 to 45 °C.

In turn, `Nc1ccc(-c2cc(OCCCCCC(=O)O)nc(-c3ccccc3)c2)cc1` showed a melting point of 131 to 133 °C.

For the compound `Cn1c(=O)n2nc(-c3ccc(Cl)cc3)nc2c2ccccc21`, the melting point was 323 to 325 °C.

Take `Cc1ccc2c(n1)Oc1ccc(C(C)C(=O)OCCC(N)=O)cc1C2` (stereo unspecified): the melting point is 143 to 145 °C.

For `CCOC(=O)c1nnn(-c2ccc(C3=NNC(=O)NC3C)cc2)c1C(=O)OCC` (stereo unspecified), the melting point lay within 156 to 158 °C.

The compound `CCCC(NS(=O)(=O)c1ccc(Cl)cc1)C(=O)Nc1ccc(CC(=O)O)cc1` (racemic) registered a melting point of 202 to 204 °C.

`O=c1[nH]c2cc(Cl)cc(Cl)c2c(O)c1Sc1ccc(NS(=O)(=O)c2ccc(Cl)cc2)cc1` showed a melting point of 270 to 274 °C.

Consider `O=C(NC[C@H]1CN(c2ccc3c(c2)CCCc2cnoc2-3)C(=O)O1)C(F)F`, for which the melting point lay in the range of 145 to 180 °C.

As for `Cc1c(N=C2NCCN2)cc(Br)cc1NS(C)(=O)=O`, the melting point is 262 °C.

Take `COc1ccccc1CCC1CCCCn2c1nc(-c1ccncn1)cc2=O` (racemic): the melting point is 155 to 157 °C.

Source of the values: a melting point compilation (Tetko et al.; mined from patent text by program, amines drawn as free bases though some values may be those of a salt).
